Laboratory results published in PMC10999543, “Identification of kinase modulators as host-directed therapeutics against intracellular methicillin-resistant Staphylococcus aureus” (Frontiers in Cellular and Infection Microbiology, 2024).
Read-outs that look alike come from different tables or passages of the source.

Columns and labels:
intracellular MRSA = assay type: cell-based, Staphylococcus aureus; conditions: for z-scoreMRSA+ mean: mean of 3 replicates; for z-scoreMRSA+ rep 1 / %GFP+ rep 1: replicate 1; for z-scoreMRSA+ rep 2 / %GFP+ rep 2: replicate 2; for z-scoreMRSA+ rep 3 / %GFP+ rep 3: replicate 3
Protocol: (§1) The cells were resuspended in cell culture medium without antibiotics, seeded with 10,000 cells/well into Costar flat-bottom 96-well plates (Corning, Amsterdam, the Netherlands), and were incubated overnight at 37°C/5% CO2. The next day, the bacteria were centrifuged at ≥1800 g for 15 min and resuspended in cold PBS + 5 mM ethylenediaminetetraacetic acid (EDTA). The number of CFUs present in the bacterial suspension was estimated from the optical density at 600 nm (OD600) by assuming 8x10^8 CFUs to be present in a bacterial suspension with OD600 = 1, based on prior titrations. The bacterial suspension was diluted in cell culture medium without antibiotics and added to the cells. Accuracy of the multiplicity of infection (MOI) was validated by plating serial dilutions of the MRSA inoculums on Difco TS agar plates (BD Biosciences). The calculated mean MOI throughout all experiments was 6.8 ± 4.6 (mean ± SD). Infected cells were centrifuged for 3 min at 150 g and incubated for 1 hour at 37°C/5% CO2. Next, the cells were incubated with fresh cell culture medium supplemented with 30 µg/ml gentamicin sulphate (Lonza BioWhittaker, Basel, Switzerland) for 15 min at 37°C/5% CO2 to kill residual extracellular bacteria. Infected cells were incubated overnight at 37°C/5% CO2 in cell culture medium in the presence of kinase inhibitors and 5 µg/ml gentamicin sulphate-containing medium to prevent the growth of extracellular bacteria. The solvent of the compounds, DMSO, was used at equal % v/v as a negative control. For the screen, each compound was tested in triplicate, on separate cell culture plates, resulting in triplicate values for each kinase inhibitor.
(§2) HeLa cells were harvested by trypsinization and fixed with 1% paraformaldehyde. Samples were measured on a FACSLyric with HTS extension (BD Biosciences). Flow cytometry data were analysed using FlowJo version 10 (TreeStar, Ashland, OR, USA). HeLa cells positive for GFP were gated to calculate the percentage of MRSA-infected cells. The cell count was used as surrogate readout of cell viability.
To identify potential “hit” compounds, the flow cytometry data were used to calculate standard z-scores using z = (x-μ)/σ – zneg, where x is total event count or the percent of GFP-positive cells from a single well, μ is the mean from wells of the plate, σ is the standard deviation of the plate and zneg is the mean z-score of the negative control of the plate (i.e., DMSO) ([Korbee et al., 2018]). To minimize the possibility that the presence of extreme values on a plate affected the z-scores, raw values that deviated two-fold from the negative controls were excluded when calculating plate means and standard deviations as used in the aforementioned formula. Compounds were considered a “hit” when z-scoreMRSA+ ≤ -2 and z-scoreHeLa ≥ -3 for cell count. In cases where compounds were screened twice, the average values were used to select hit compounds.

HeLa cells = assay: Compound screen by flow cytometry: HeLa cell count as surrogate readout of cell viability (z-scoreHeLa); assay type: cell-based, human
Protocol: as §1, §2
To minimize the possibility that the presence of extreme values on a plate affected the z-scores, raw values that deviated two-fold from the negative controls were excluded when calculating plate means and standard deviations as used in the aforementioned formula. Compounds were considered a “hit” when z-scoreMRSA+ ≤ -2 and z-scoreHeLa ≥ -3 for cell count. In cases where compounds were screened twice, the average values were used to select hit compounds.

[1] = PKIS compound screen, Yes/No call
[2] = PKIS compound screen, Yes/No call (effect without cell death)
[3] = PKIS compounds raw data, MRSA-infected HeLa cells
[4] = PKIS compound screen, mean of 3 replicates
[5] = PKIS compound screen, replicate 1
[6] = PKIS compound screen, replicate 2
[7] = PKIS compound screen, replicate 3
[8] = PKIS compounds raw data, replicate 1, HeLa cell count
[9] = PKIS compounds raw data, replicate 2, HeLa cell count
[10] = PKIS compounds raw data, replicate 3, HeLa cell count
[11] = Yes/No: effect without cell death
[12] = compound screen, MRSA-infected HeLa cells
[13] = compound screen, HeLa cell count, mean of 3 replicates
[14] = compound screen, HeLa cell count, replicate 1
[15] = compound screen, HeLa cell count, replicate 2
[16] = compound screen, HeLa cell count, replicate 3
[17] = PKIS compound screen raw data, MRSA-infected HeLa cells
[18] = PKIS compound screen, MRSA-infected HeLa cells
[19] = PKIS compound screen, Yes/No call on z-scoreMRSA+

| Structure (SMILES) | hit (intracellular MRSA; [2]) | %GFP+ rep 1 (intracellular MRSA; [3]) [%] | %GFP+ rep 2 (intracellular MRSA; [3]) [%] | %GFP+ rep 3 (intracellular MRSA; [3]) [%] | cell count rep 1 (HeLa cells; [8]) | cell count rep 2 (HeLa cells; [9]) | cell count rep 3 (HeLa cells; [10]) | %GFP+ rep 1 (intracellular MRSA; [17]) [%] | %GFP+ rep 2 (intracellular MRSA; [17]) [%] | %GFP+ rep 3 (intracellular MRSA; [17]) [%] | z-scoreMRSA+ mean (intracellular MRSA; [18]) | z-scoreMRSA+ rep 1 (intracellular MRSA; [18]) | z-scoreMRSA+ rep 2 (intracellular MRSA; [18]) | z-scoreMRSA+ rep 3 (intracellular MRSA; [18]) | effect (intracellular MRSA; [19]) | also measured |
| --- | --- | --- | --- | --- | --- | --- | --- | --- | --- | --- | --- | --- | --- | --- | --- | --- |
| COc1ccc2ncnc(Nc3ccc(OCc4ccccc4)cc3)c2c1 [GI261520A] | No | 11.8 | 13.4 | 11.4 | 6115 | 6030 | 12782 | – | – | – | – | – | – | – | – | effect (intracellular MRSA; [1]): No; z-scoreMRSA+ mean (intracellular MRSA; PKIS compound screen): -0.60; z-scoreMRSA+ rep 1 (intracellular MRSA; PKIS compound screen): -0.44; z-scoreMRSA+ rep 2 (intracellular MRSA; PKIS compound screen): -0.0319; z-scoreMRSA+ rep 3 (intracellular MRSA; PKIS compound screen): -1.33; cell death (HeLa cells; [1]): No; z-scoreHeLa mean (HeLa cells; [4]): 1.78; z-scoreHeLa rep 1 (HeLa cells; [5]): 1.21; z-scoreHeLa rep 2 (HeLa cells; [6]): 1.33; z-scoreHeLa rep 3 (HeLa cells; [7]): 2.78 |
| Oc1ccc2ncnc(Nc3ccc(OCc4ccccc4)cc3)c2c1 [GI262866A] | – | 22.5 | 22.3 | 21.5 | 5744 | 4904 | 6919 | – | – | – | – | – | – | – | – | effect (intracellular MRSA; Yes/No call from z-scoreMRSA+): No; hit (intracellular MRSA; [11]): No; z-scoreMRSA+ mean (intracellular MRSA; [12]): -0.31; z-scoreMRSA+ rep 1 (intracellular MRSA; [12]): -0.65; z-scoreMRSA+ rep 2 (intracellular MRSA; [12]): -0.0758; z-scoreMRSA+ rep 3 (intracellular MRSA; [12]): -0.21; cell death (HeLa cells; Yes/No call from z-scoreHeLa): No; z-scoreHeLa mean (HeLa cells; [13]): 0.84; z-scoreHeLa rep 1 (HeLa cells; [14]): 1.00; z-scoreHeLa rep 2 (HeLa cells; [15]): 0.46; z-scoreHeLa rep 3 (HeLa cells; [16]): 1.06 |
| c1ccc(Cc2nc3ccc(Nc4ncnc5ccccc45)cc3[nH]2)cc1 [GR269666A] | No | 13.4 | 15.8 | 13.5 | 4886 | 4795 | 7830 | – | – | – | – | – | – | – | – | effect (intracellular MRSA; [1]): No; z-scoreMRSA+ mean (intracellular MRSA; PKIS compound screen): 0.046; z-scoreMRSA+ rep 1 (intracellular MRSA; PKIS compound screen): 0.07; z-scoreMRSA+ rep 2 (intracellular MRSA; PKIS compound screen): 0.77; z-scoreMRSA+ rep 3 (intracellular MRSA; PKIS compound screen): -0.71; cell death (HeLa cells; [1]): No; z-scoreHeLa mean (HeLa cells; [4]): 0.30; z-scoreHeLa rep 1 (HeLa cells; [5]): 0.10; z-scoreHeLa rep 2 (HeLa cells; [6]): 0.40; z-scoreHeLa rep 3 (HeLa cells; [7]): 0.42 |
| Cc1cnc(N)c(/C=C/c2cncc(C(=O)NCCc3ccc(Cl)cc3Cl)c2)c1 [GSK190937A] | No | – | – | – | – | – | – | 17.3 | 19.0 | 19.5 | -0.04 | -0.18 | 0.14 | -0.09 | No | – |
| CCNC(=O)O[C@H]1CN[C@H](C#Cc2cc3ncnc(Nc4ccc(OCc5cccc(F)c5)c(Cl)c4)c3s2)C1 [GSK192082A] | – | 6.9 | 7.5 | 8.8 | 3041 | 2947 | 5819 | – | – | – | – | – | – | – | – | effect (intracellular MRSA; Yes/No call from z-scoreMRSA+): Yes; hit (intracellular MRSA; [11]): Yes; z-scoreMRSA+ mean (intracellular MRSA; [12]): -2.04; z-scoreMRSA+ rep 1 (intracellular MRSA; [12]): -2.01; z-scoreMRSA+ rep 2 (intracellular MRSA; [12]): -2.02; z-scoreMRSA+ rep 3 (intracellular MRSA; [12]): -2.09; cell death (HeLa cells; Yes/No call from z-scoreHeLa): No; z-scoreHeLa mean (HeLa cells; [13]): -1.04; z-scoreHeLa rep 1 (HeLa cells; [14]): -1.57; z-scoreHeLa rep 2 (HeLa cells; [15]): -1.00; z-scoreHeLa rep 3 (HeLa cells; [16]): -0.55 |
| Fc1ccc(-c2ncn(C3CCNCC3)c2-c2ccnc(Oc3cccc(F)c3)n2)cc1 [SB-251505] | No | – | – | – | – | – | – | 15.0 | 15.3 | 16.6 | -0.95 | -0.91 | -0.97 | -0.97 | No | – |
| Fc1ccc(-c2ncn(C3CCNCC3)c2-c2ccnc(Oc3cccc(C(F)(F)F)c3)n2)cc1 [SB-253226] | No | – | – | – | – | – | – | 14.0 | 15.8 | 16.0 | -1.07 | -1.22 | -0.82 | -1.15 | No | – |
| Fc1ccc(-c2ncn(C3CCNCC3)c2-c2ccnc(Oc3ccc(Cl)cc3)n2)cc1 [SB-278539] | No | – | – | – | – | – | – | 13.4 | 15.5 | 16.2 | -1.14 | -1.41 | -0.91 | -1.09 | No | – |
| Cc1cc(C)cc(Oc2nccc(-c3c(-c4ccc(F)cc4)ncn3C3CCNCC3)n2)c1 [SB-284851-BT] | – | – | – | – | – | – | – | – | – | – | – | – | – | – | – | cell count rep 1 (HeLa cells): 26737; cell count rep 2 (HeLa cells): 41520; cell count rep 3 (HeLa cells): 48762; cell death (HeLa cells): No; z-scoreHeLa mean (HeLa cells): 1.19; z-scoreHeLa rep 1 (HeLa cells): 1.00; z-scoreHeLa rep 2 (HeLa cells): 1.26; z-scoreHeLa rep 3 (HeLa cells): 1.31 |
| Cc1ccc(C)c(Oc2nccc(-c3c(-c4ccc(F)cc4)ncn3C3CCNCC3)n2)c1 [SB-284852-BT] | – | – | – | – | – | – | – | – | – | – | – | – | – | – | – | cell count rep 1 (HeLa cells): 26025; cell count rep 2 (HeLa cells): 26957; cell count rep 3 (HeLa cells): 22542; cell death (HeLa cells): No; z-scoreHeLa mean (HeLa cells): 0.10; z-scoreHeLa rep 1 (HeLa cells): -0.71; z-scoreHeLa rep 2 (HeLa cells): 0.29; z-scoreHeLa rep 3 (HeLa cells): 0.70 |
| COc1ccccc1C1=C(Nc2ccc(O)c(Cl)c2)C(=O)NC1=O [SB-381904] | No | – | – | – | – | – | – | 16.9 | 18.3 | 18.4 | -0.26 | -0.30 | -0.07 | -0.42 | No | – |
